One test relates to INS1. Nature of the test: beta cell apoptosis inhibitors, cytokine rescue, dose response, luminescence, retest (AID 449756).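 Also: cell death triggered by IL-1 beta plus TNF-alpha plus IFN-gamma mixture; protective hits raise ATP signal compared with cytokine alone wells.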 It is filed as functional, cell-based. Particulars: Rattus norvegicus.
A short description of test [1]: Luminescence Cell-Based Dose Response HTS to Identify Inhibitors of 5'UTR Stem-Loop Driven Prion Protein mRNA Translation in H4 Neuroglioblastoma Cells. [Related pubchem assays: 1827 (Project Summary), 1813 (Primary HTS)]. It is filed as functional.
A short description of test [2]: inhibitors of firefly luciferase expression or activity, dose response, H4 neuroglioma cells, luminescence (AID 1990). It is filed as functional, cell-based.
Test [3] in a line: inhibitors of SNCA 5'UTR-driven reporter translation, confirmation, H4 neuroglioma cells, luminescence (AID 1988). Format: functional, cell-based.
A short description of test [4]: HEp-2 cell cytotoxicity, dose response, cytotoxicity control for RSV inhibitor project, HTS (AID 2410). It is filed as functional. Particulars: human respiratory syncytial virus.
In another test the test system is H9c2. The test is described as follows: cells. It is filed as functional, cell-based. Particulars: Rattus norvegicus, H9c2, Myocardium.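 Also: confirmatory concentration-response retest of ultra-high-throughput screening hits for modulation of myocardial damage; cell death induced by hydrogen peroxide oxidative stress; compound pretreatment for 60 min then peroxide exposure for 2 h; potency is for protecting the cells against peroxide damage rather than for killing them.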
In test [5] the test system is Streptococcus sp. 'group A'. The test is described as follows: growth inhibition of control SK(-) GAS strain, dose response, counter-screen for streptokinase expression inhibitor project, luminescence, kanamycin, BacTiterGlo, confirmation (AID 1900). It is filed as functional, organism-based. (Counterscreens check selectivity or assay interference.)
Another test concerns the target T1, Streptokinase A (Streptococcus pyogenes serotype M1, UniProt P10520).
T1 sequence (P10520 whole entry): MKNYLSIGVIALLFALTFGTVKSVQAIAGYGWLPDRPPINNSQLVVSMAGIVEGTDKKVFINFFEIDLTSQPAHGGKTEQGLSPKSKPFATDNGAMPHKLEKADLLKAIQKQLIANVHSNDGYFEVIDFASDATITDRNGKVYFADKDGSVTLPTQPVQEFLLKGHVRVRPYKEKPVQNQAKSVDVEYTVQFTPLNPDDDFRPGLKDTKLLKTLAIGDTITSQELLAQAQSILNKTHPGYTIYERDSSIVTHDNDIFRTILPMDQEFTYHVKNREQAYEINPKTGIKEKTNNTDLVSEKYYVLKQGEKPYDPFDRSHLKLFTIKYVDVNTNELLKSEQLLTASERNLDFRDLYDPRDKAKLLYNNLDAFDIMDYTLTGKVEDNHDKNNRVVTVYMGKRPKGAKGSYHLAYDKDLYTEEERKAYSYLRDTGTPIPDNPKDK
Nature of the test: S. pyogenes streptokinase expression inhibitors, potency, dose response, plasminogen activation absorbance, OD405 (AID 1914).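 Also: secreted streptokinase activity via plasminogen activation per viability signal from cell pellet.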 Format: functional, Streptococcus pyogenes M1 GAS.

The test system of the next test is Streptococcus. The test is described as follows: Group A Streptococcus viability loss, dose response, counter-screen for streptokinase expression inhibitor project, luminescence, BacTiterGlo (AID 1915).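 Also: potency for reduction of bacterial viability or growth.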 It is filed as functional, organism-based.
Test [6] deals with T2, Fatty acid synthase (Homo sapiens, UniProt P49327). Nature of the test: FAS thioesterase domain inhibitors, dose response, biochemical, kinetic fluorescence intensity (AID 624326).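 Also: rate of fluorescence rise from hydrolysis of a fluorogenic O-methyl fluorescein ester substrate.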 It is filed as functional.
T2 sequence (P49327 whole entry, the tested form may be a part): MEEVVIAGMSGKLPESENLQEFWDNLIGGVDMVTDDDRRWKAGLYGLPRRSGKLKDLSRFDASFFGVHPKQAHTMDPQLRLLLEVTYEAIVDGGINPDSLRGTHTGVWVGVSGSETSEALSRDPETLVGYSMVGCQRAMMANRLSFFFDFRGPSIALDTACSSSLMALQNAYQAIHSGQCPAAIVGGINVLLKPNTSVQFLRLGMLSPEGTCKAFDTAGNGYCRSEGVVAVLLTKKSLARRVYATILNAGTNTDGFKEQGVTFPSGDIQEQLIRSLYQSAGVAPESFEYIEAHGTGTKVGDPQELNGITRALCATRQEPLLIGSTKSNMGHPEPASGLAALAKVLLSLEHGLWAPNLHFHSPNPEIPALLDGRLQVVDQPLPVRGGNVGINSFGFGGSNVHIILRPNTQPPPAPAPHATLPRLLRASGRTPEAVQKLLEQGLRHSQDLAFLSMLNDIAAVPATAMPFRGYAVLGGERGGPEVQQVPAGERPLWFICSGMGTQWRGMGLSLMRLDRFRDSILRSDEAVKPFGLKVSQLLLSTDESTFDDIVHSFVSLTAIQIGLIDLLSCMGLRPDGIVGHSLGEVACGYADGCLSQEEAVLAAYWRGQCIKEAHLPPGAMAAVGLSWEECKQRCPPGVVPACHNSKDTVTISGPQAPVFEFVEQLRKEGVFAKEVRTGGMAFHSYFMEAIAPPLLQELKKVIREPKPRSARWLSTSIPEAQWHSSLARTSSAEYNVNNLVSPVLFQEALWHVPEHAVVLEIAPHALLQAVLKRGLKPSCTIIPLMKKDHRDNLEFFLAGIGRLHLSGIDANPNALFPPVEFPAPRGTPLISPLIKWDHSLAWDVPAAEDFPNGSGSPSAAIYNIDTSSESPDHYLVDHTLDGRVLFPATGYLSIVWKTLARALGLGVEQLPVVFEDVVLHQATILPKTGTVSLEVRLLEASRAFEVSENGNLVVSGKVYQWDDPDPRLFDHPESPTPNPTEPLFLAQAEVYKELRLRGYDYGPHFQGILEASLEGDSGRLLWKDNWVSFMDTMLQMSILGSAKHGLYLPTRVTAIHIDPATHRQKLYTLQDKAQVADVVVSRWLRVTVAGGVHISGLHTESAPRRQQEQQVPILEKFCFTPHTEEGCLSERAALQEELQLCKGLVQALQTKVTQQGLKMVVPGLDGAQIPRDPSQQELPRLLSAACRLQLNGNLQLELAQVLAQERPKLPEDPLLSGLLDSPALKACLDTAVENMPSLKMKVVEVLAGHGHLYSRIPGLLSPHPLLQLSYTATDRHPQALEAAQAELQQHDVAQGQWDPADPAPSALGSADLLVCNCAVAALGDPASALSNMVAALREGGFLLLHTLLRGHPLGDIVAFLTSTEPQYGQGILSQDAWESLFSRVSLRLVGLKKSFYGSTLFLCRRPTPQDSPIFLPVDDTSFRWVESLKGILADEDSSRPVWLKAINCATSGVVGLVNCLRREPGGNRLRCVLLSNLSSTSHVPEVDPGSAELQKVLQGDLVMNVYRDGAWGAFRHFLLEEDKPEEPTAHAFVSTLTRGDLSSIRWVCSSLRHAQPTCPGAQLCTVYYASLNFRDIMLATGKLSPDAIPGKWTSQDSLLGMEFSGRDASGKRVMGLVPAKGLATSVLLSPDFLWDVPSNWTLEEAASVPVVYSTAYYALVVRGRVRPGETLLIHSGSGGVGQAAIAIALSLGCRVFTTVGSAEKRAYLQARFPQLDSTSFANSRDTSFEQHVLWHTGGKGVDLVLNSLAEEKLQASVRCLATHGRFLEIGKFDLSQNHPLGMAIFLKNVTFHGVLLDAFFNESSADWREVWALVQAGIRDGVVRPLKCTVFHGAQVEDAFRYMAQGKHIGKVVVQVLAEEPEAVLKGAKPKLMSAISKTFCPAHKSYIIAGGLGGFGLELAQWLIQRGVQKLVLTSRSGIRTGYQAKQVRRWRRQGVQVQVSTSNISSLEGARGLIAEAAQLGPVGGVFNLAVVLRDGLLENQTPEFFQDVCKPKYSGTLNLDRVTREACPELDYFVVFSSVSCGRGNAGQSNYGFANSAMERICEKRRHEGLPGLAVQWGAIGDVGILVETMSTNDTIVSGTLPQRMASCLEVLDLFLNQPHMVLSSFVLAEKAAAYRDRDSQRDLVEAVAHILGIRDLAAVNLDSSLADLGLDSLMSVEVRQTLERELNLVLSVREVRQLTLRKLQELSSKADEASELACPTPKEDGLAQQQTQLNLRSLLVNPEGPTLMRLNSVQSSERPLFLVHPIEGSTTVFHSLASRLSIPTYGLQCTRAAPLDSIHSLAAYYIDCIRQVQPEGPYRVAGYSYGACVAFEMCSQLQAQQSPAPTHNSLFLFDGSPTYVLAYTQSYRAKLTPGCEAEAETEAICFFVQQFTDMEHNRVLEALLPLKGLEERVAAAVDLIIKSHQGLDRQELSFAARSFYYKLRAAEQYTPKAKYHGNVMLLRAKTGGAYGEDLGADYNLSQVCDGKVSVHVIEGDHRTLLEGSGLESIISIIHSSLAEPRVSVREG
A further test deals with T3, Protein RecA (Mycobacterium tuberculosis, UniProt P9WHJ3).
T3 sequence (P9WHJ3 whole entry): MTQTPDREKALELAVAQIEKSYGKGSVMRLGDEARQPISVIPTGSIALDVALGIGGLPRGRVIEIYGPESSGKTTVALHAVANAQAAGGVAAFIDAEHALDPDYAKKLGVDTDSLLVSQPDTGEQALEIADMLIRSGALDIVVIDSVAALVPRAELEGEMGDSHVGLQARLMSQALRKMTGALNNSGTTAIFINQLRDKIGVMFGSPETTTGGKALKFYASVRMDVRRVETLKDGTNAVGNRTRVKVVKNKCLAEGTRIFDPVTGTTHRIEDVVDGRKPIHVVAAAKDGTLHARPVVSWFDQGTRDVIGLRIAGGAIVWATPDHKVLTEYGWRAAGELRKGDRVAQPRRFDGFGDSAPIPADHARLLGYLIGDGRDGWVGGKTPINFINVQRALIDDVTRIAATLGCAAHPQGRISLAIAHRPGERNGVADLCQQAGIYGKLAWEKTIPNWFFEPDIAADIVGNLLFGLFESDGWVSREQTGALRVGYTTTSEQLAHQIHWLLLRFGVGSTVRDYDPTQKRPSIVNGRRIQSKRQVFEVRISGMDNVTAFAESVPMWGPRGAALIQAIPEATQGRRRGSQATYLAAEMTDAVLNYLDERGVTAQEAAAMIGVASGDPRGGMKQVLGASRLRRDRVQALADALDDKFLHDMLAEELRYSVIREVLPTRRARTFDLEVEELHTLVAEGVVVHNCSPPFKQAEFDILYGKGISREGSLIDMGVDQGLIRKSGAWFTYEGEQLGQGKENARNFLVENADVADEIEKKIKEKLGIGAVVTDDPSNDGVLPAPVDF
The test is described as follows: Fluorescence Cell-Free Homogeneous Dose Retest to Identify Inhibitors of RecA-Intein Splicing Activity. [Related pubchem assays (depositor defined):AID2097, AID2223, AID489010, AID492950]. It is filed as functional.

The target in test [7] is T2, Fatty acid synthase. The test is described as follows: FAS thioesterase domain inhibitors, dose response, biochemical, endpoint fluorescence intensity, uHTS hits (AID 624327).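 Also: fluorescence from hydrolysis of an O-methyl fluorescein acyl ester substrate by the enzyme.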 It is filed as functional.

Structures are written as SMILES. Activity calls are given as the source filed them. Rule as the data show it, for most assays here: actives have a measured EC50 and inactives only a lower limit. Some results are limits rather than exact numbers.

Consider `FC(F)(F)c1nc2ccccc2n2c(-c3ccc(Cl)cc3)nnc12`, for which the AC50 in the test on INS1 was 6.4 µM (active). Besides, the EC50 in test [1] was 9.21 µM (active); in test [2], 9.07 µM (active); in test [3] it was 8.92 µM (active).
Regarding `COc1ccc(-c2nn(-c3ccccc3)cc2C(=O)OCC(=O)c2ccc(C)c([N+](=O)[O-])c2)cc1`, the AC50 in the test with INS1 is 0.97 µM (active).
With `CC1CN(c2ccc([N+](=O)[O-])cc2C#N)CC(C)O1` (centres undefined), in [4], the CC50 was 34.9 µM (active).
With `Cc1cccc(NC(=O)c2cc(-c3ccco3)nc3ccccc23)n1`, the IC50 in the test on H9c2 is > 79 µM (inactive).
`O=C(NC(=S)N1CCN(C(c2ccccc2)c2ccccc2)CC1)c1ccc(S(=O)(=O)N2CCOCC2)cc1`: the EC50 in test [5] is 1.14 µM (active); at Streptokinase A, > 150 µM (not active); in the test on Streptococcus it was 108 µM (active).
As for `CC(C)(C)c1ccc(Cn2ccc(-c3ccc4c(c3)OCO4)n2)cc1`, the values for the EC50 (in test [5]; at Streptokinase A; with Streptococcus) were 9.62 µM (active), > 150 µM (not active) and 79.9 µM (active), respectively.
For the compound `CC[C@@]12C(=O)N(c3cccc(Br)c3)C(=O)N1[C@H](c1ccc(F)cc1)[C@@H]1C(=O)N(C3CCCCC3)C(=O)[C@@H]12`, the CC50 in test [4] was 41.1 µM (active).
On to `CC(C)(C)C(=O)N1N=C(c2ccc(NS(C)(=O)=O)cc2)CC1c1cccs1` (centres undefined), for which the EC50 in test [5] was 6.62 µM (active); on Streptokinase A it was > 150 µM (not active); with Streptococcus, 12.4 µM (active).
As for `COc1ccc(-c2[nH]c(-c3ccc(C)cc3)nc2SCC(=O)NC2CCCC2)cc1`, the CC50 in test [4] was 38.9 µM (active).
With `Cc1cc(C)n(-c2nc(NCCO)c3c4c(sc3n2)CCCC4)n1`, the AC50 in the test on INS1 is 5.3 µM (active).
For the compound `O=C(CSc1ccc(-c2ccc(Cl)cc2)nn1)NC1CCCC1`, the EC50 (in [5]; at Streptokinase A; in the test with Streptococcus) was > 150 µM (not active) each time.
Take `COc1cc(OC)c(NC(=O)c2sc3ncn(CC(=O)N4CCN(c5ccccn5)CC4)c(=O)c3c2C)cc1Cl`: the EC50 in test [5] was 11.6 µM (active); on Streptokinase A, > 150 µM (not active); in the test on Streptococcus, 86.6 µM (active).
Consider `O=C(/C=C/c1cccs1)c1cc(Br)ccc1OC(=O)N1CCOCC1`, for which the CC50 in test [4] was 18.7 µM (active).
Consider `CCc1ccc(/C=C2\SC(N3CCCC3)=NC2=O)cc1`, for which the 50% cytotoxic concentration (CC50) in [4] is > 50 µM (active).
With `Cc1[nH]c2ccccc2c1N=Nc1ccc(F)cc1`, the CC50 in [4] was 17.2 µM (active).
Regarding `C[C@@H](C(=O)Nc1ccc2ccccc2c1)[C@H]1C[C@]1(C)[C@H](NS(=O)(=O)c1ccccc1)c1ccccc1`, the CC50 in test [4] is 36.4 µM (active).
In the case of `COc1cc(CCNc2ccc3nnc(-c4ccccc4)n3n2)cc(OC)c1OC`, the IC50 in the test with H9c2 was > 79 µM (inactive).
As for `CCCC(=O)Nc1sc2c(c1C(=O)OC)C(C(=O)OC)CC2` (centres undefined), in [4], the CC50 was 31.6 µM (active).
As to `CCC(=O)Nc1ccc(Nc2nc(C)c([N+](=O)[O-])c(Nc3ccc(NC(=O)CC)cc3)n2)cc1`, the EC50 in test [5] is 0.487 µM (active); at Streptokinase A, > 150 µM (not active); with Streptococcus, 49.3 µM (active).
Turning to `COc1ccc(/C=N/NC(=O)c2cc(C(C)(C)C)[nH]n2)cc1COc1ccc(F)cc1F`, the EC50 in [5] is 6.95 µM (active); on Streptokinase A, > 150 µM (not active); with Streptococcus, 11.7 µM (active).
For the compound `CCOC(=O)c1ccc(NC(=O)CC2SC(N/N=C/c3c[nH]c4ccccc34)=NC2=O)cc1` (centres undefined), the EC50 is 3.35 µM (active) in test [5], > 150 µM (not active) on Streptokinase A and > 150 µM (not active) with Streptococcus.
On to `Cc1[nH]c2ccccc2c1/C=N/NC(=O)c1cc(-c2cccs2)[nH]n1`, for which the IC50 in the test on H9c2 is > 79 µM (inactive).
Regarding `Cc1ccccc1/N=C1\C(Cl)=C(O)OC1OC(=O)c1ccco1` (centres undefined), the figures for the IC50 on Fatty acid synthase [6] and at Fatty acid synthase [7] were 4.35 µM (active) and 3.24 µM (active), respectively. The EC50 on Protein RecA is 11.4 µM (active).

Broadly, the AC50 is the concentration giving half of the maximal activity seen. A word on the EC50: it is the concentration that produces a half-maximal response. As usually defined, the CC50 is the concentration at which the toxic effect on the cells reaches its halfway point. What is called IC50 is the midpoint of a concentration-inhibition curve.

Source of the values: ChEMBL document CHEMBL1201862, “PubChem BioAssay data set” (2004).
